Data: patent publication US11986485B1, “Compositions and methods for treating epilepsy” (POVIVA CORP, priority 2023, dated 2024)
Entries after “also recorded” stand apart in the source; their conditions may differ.

Assay: Hepatic markers (ALT, AST, ALP, GGT, total bilirubin) during 5-week administration
Assay type: in vivo, humans
Protocol: The study protocol was registered at the ClinicalTrials.gov (accessed on 7 Apr. 2022) (NCT05346562). […] Following a two-week washout, participants then repeated testing for another five weeks under different conditions. Participants visited the laboratory on 6 occasions in total (3 in each study arm), each time following an overnight fast. The complete course of the study was performed at the Department for Integrative Physiology, University of Split School of Medicine, Split, Croatia. The study design, implementation, and reporting followed the CONSORT guidelines, including the 25-item checklist and a flow diagram. The study was conducted according to the guidelines of the Declaration of Helsinki and was approved by the Ethics Committee of University of Split School of Medicine on 15 Dec. 2021 (Class: 003-08/21-03/0003; Reg. No.: 2181-198-03-04-21-0091). Prior to enrollment in the study, every participant was informed about the procedures, course, and purpose of the research and each of them individually signed an informed written consent.
Each patient visited the laboratory 6 times in total. During each visit, a sample of venous blood was taken from forearm following an overnight fast and sample of urine was obtained. All blood and urine samples were analyzed in the same certified institutional biochemical laboratory, using the standard operating procedures.
Hepatic (ALT, AST, ALP, GGT, and total bilirubin) markers were also measured.
Moreover, these changes we<1 standard deviation and therefore viewed as not clinically meaningful. As noted earlier, >3SD over normative values were classified as an AE.

[1] = 5 weeks administration, versus placebo
[2] = 5 weeks administration, versus placebo, listed as CBD

SMILES: C=C(C)[C@@H]1CCC(C)=C[C@H]1c1c(O)cc(CCCCC)cc1O [Cannabidiol, 2-[(1R,6R)-6-Isopropenyl-3-methylcyclohex-2-en-1-yl]-5-pentylbenzene-1,3-diol]
- plasma alanine transaminase (ALT) [1]: remained effectively unchanged over time
- plasma alkaline phosphatase (ALP) [1]: remained effectively unchanged over time
- plasma total bilirubin [1]: remained effectively unchanged over time
- plasma aspartate transaminase (AST) [2]: higher in the placebo condition; also recorded: remained effectively unchanged over time
- plasma gamma-glutamyl transferase (GGT) [2]: slightly higher; also recorded: remained effectively unchanged over time
- size of GGT and AST changes (viewed as not clinically meaningful): < 1 standard deviation
